In BindingDB's records for doi:10.1021/jm9811209 (Novartis Horsham Research Centre, 1999):

Experiment: The compound was evaluated for the inhibitory activity against human thrombin

- Ki: 32 nM
SMILES: CC1(C)CNc2c(cccc2S(=O)(=O)NC(CCCNC(=N)N)C(=O)N2CCC(CCO)CC2)C1 (stereo unspecified) [3,3-Dimethyl-1,2,3,4-tetrahydro-quinoline-8-sulfonic acid {4-guanidino-1-[4-(2-hydroxy-ethyl)-piperidine-1-carbonyl]-butyl}-amide]
